Values of other authors as cited in doi:10.1101/435081v1 (bioRxiv, 2018).

Test system: Lb. sakei NCDO2714
Settings: single peptide alone

Substance	Growth inhibition when alone
acidocin LF221B [Acd221B]	inhibited the growth
acidocin LF221A [Acd221A]	inhibited the growth
